Experimental data taken from patent US10004702B2, “Linear guanidine derivatives, methods of preparation and uses thereof” (LEAD DISCOVERY SIENA S.R.L., priority 2014, dated 2018).
In brackets after ≈: the same amount, converted by molar mass. Like-named read-outs stand apart in the source and are kept apart here.

Legend:
[1] = test system: Achromobacter xylosoxidans AX 22; test: Antimicrobial susceptibility testing, MIC by microdilution broth method; assay type: cell-based; conditions: 18-24 hours at 35-37° C.
Procedure: (§1) Bacterial strains were obtained from the ATCC or CCUG culture collections or present in the authors' collection of clinical isolates. Compounds were re-suspended in dimethyl sulfoxyde (DMSO) at a final concentration of 10 mg/ml and subsequently diluted in the culture medium. The minimum inhibitory concentrations (MICs) of the compounds of the invention were determined using the microdilution broth method using Mueller-Hinton broth as recommended by the Clinical Laboratory Standards Institute (CLSI [11]). Bacterial inoculum was 5×10^4 CFU/well. MICs were recorded after 18-24 hours incubation at 35-37° C.

[2] = test system: Acinetobacter baumannii ATCC 17978; test: as above; assay type: cell-based; conditions: 18-24 hours at 35-37° C.
Procedure: as §1

[3] = test system: Alcaligenes faecalis 424/98; test: as above; assay type: cell-based; conditions: Mueller-Hinton broth, 18-24 hours at 35-37° C.
Procedure: as §1

[4] = test system: Bacillus subtilis ATCC 6633; test: as above; assay type: cell-based; conditions: 18-24 hours at 35-37° C.
Procedure: as §1

Burkholderia cepacia RII = test: as above; assay type: cell-based; conditions: Mueller-Hinton broth, 18-24 hours at 35-37° C.
Procedure: as §1

[5] = test system: Chryseobacterium meningosepticum CCUG 4310; test: as above; assay type: cell-based; conditions: 18-24 hours at 35-37° C.
Procedure: as §1

[6] = test system: Enterococcus faecalis ATCC 19433; test: as above; assay type: cell-based; conditions: 18-24 hours at 35-37° C.
Procedure: as §1

Escherichia coli CCUG^T = test: as above; assay type: cell-based; conditions: Mueller-Hinton broth, 18-24 hours at 35-37° C.
Procedure: as §1

[7] = test system: Klebsiella pneumoniae ATCC 13833; test: as above; assay type: cell-based; conditions: 18-24 hours at 35-37° C.
Procedure: as §1

[8] = test system: Pseudomonas aeruginosa ATCC 27853; test: as above; assay type: cell-based; conditions: 18-24 hours at 35-37° C.
Procedure: as §1

[9] = test system: Staphylococcus aureus ATCC 25923; test: as above; assay type: cell-based; conditions: 18-24 hours at 35-37° C.
Procedure: as §1

[10] = test system: Stenotrophomonas maltophilia 634/08; test: as above; assay type: cell-based; conditions: Mueller-Hinton broth, 18-24 hours at 35-37° C.
Procedure: as §1

[11] = test system: Acinetobacter baumannii AC-54/97 (IMP-2); test: as above; assay type: cell-based; conditions: Acinetobacter baumannii AC-54/97 (IMP-2), Tables 2 and 3
Procedure: as §1
(§2) The Antibacterial activity of compound 28 was also tested on a panel of Gram-negative and Gram-positive clinical isolates, showing various antimicrobial susceptibility profiles (Table 4). The class of drugs for which the isolate was resistant to is indicated in column 2 (PEN, penicillins; ES-CEPH, expanded-spectrum cephalosporins; CARB, carbapenems; AZT; aztreonam; AG, aminoglycosides; FQ, fluoroquinolones; SXT, trimethoprim/sulfamethoxazole; FOS, fosfomycin; GLY, glycopeptides; LNZ, linezolid; COL-R, colistin resistant; COL-S colistin sensitive; PDR, poly-drug resistant).

[12] = test system: Enterobacter cloacae VA-417/02 (VIM-4); test: as above; assay type: cell-based; conditions: Enterobacter cloacae VA-417/02 (VIM-4); Tables 2 and 3
Procedure: as §1, §2

[13] = test system: Klebsiella pneumoniae 081R; test: as above; assay type: cell-based; conditions: Tables 2 and 3
Procedure: as §1, §2

[14] = test system: Gram-positive and Gram-negative organisms; test: Antimicrobial susceptibility testing, overall statements on the panel; assay type: cell-based; conditions: overall comparison over the tested strains
Procedure: as §1

Human Serum Albumin = Human Serum Albumin (Homo sapiens, UniProt P02768); test: Binding fluorimetric assay (tryptophan quenching); conditions: fixed concentration of HSA titrated with different amounts of compound
Procedure: The solutions were mixed and after allowing 30 minutes at room temperature to reach the equilibrium conditions, the spectra were recorded. […] The percentages obtained were plotted against the concentrations used and the KD values were calculated using GraphPad software (version 5.0).

[15] = AX22, Mueller-Hinton broth, read-out: MIC
[16] = ATCC17978, Mueller-Hinton broth, read-out: MIC
[17] = ATCC6633, Mueller-Hinton broth, read-out: MIC
[18] = Elizabethkingia meningoseptica, CCUG4310, Mueller-Hinton broth, read-out: MIC
[19] = ATCC19433, Mueller-Hinton broth, read-out: MIC
[20] = ATCC13833, Mueller-Hinton broth, read-out: MIC
[21] = ATCC27853, Mueller-Hinton broth, read-out: MIC
[22] = ATCC25923, Mueller-Hinton broth, read-out: MIC

Human Serum Albumin, sequence (P02768 25-609): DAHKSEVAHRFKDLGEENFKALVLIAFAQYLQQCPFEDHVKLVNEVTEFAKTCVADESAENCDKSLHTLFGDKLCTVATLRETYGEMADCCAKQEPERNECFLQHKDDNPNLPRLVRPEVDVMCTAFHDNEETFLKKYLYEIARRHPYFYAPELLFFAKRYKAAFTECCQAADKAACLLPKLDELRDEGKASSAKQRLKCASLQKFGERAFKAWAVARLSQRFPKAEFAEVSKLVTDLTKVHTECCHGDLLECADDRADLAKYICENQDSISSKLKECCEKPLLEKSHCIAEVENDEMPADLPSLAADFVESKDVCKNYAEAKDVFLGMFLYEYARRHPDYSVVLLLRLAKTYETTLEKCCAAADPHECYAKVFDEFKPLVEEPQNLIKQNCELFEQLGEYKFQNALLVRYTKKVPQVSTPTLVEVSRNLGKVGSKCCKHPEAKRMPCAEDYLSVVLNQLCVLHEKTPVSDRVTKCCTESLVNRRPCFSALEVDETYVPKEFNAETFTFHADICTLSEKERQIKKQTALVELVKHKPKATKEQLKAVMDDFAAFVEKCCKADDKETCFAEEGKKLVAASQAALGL

Row | Structure (SMILES) | MIC ([1]; Mueller-Hinton broth) | MIC ([2]; Mueller-Hinton broth) | MIC [3] | MIC ([4]; Mueller-Hinton broth) | MIC (Burkholderia cepacia RII) | MIC ([5]; Mueller-Hinton broth) | MIC ([6]; Mueller-Hinton broth) | MIC (Escherichia coli CCUG^T) | MIC ([7]; Mueller-Hinton broth) | MIC ([8]; Mueller-Hinton broth) | MIC ([9]; Mueller-Hinton broth) | MIC [10] | MIC [11] | MIC [12] | MIC [1, 15] | MIC [2, 16] | MIC ([3]; read-out: MIC) | MIC [4, 17] | MIC (Burkholderia cepacia RII; read-out: MIC) | MIC [5, 18] | also measured
1 | N=C(N)NCCCCCCCCN(CCCCCCCCNC(=N)NCC1CC1)C(=O)N(CCCCCCCCNC(=N)NCC1CC1)CCCCCCCCNC(=N)NC(=O)NCCCCCCCCNCCCCCCCCNC(=N)NCC1CC1 [Compound 32, 1,3-bis(8-(3-(cyclopropylmethyl)guanidino)octyl)-1-(8-guanidinooctyl)-3-(8-((3-(8-((8-(3-(cyclopropylmethyl))guanidinooctyl)amino)octyl)carbamoyl)guanidino)octyl)urea] | 64 µg/mL (≈ 51.7 µM) | 32 µg/mL (≈ 25.8 µM) | 32 µg/mL (≈ 25.8 µM) | 8 µg/mL (≈ 6.46 µM) | 128 µg/mL (≈ 103 µM) | 64 µg/mL (≈ 51.7 µM) | <0.125 µg/mL | 8 µg/mL (≈ 6.46 µM) | 8 µg/mL (≈ 6.46 µM) | 32 µg/mL (≈ 25.8 µM) | 8 µg/mL (≈ 6.46 µM) | 64 µg/mL (≈ 51.7 µM) | 16 µg/mL (≈ 12.9 µM) | 16 µg/mL (≈ 12.9 µM) | – | – | – | – | – | – | MIC [13]: 16 µg/mL (≈ 12.9 µM); antimicrobial spectrum (in words) [14]: active against both Gram-positive and Gram-negative organisms
2 | N=C(N)NCCCCCCN(CCCCCCNC(=N)NCC1CC1)C(=O)N(CCCCCCNC(=N)N)CCCCCCNC(=N)NCC1CC1 [Compound 31, 1,3-bis(6-(3-(cyclopropylmethyl)guanidino)hexyl)-1,3-bis(6-guanidinohexyl)urea] | – | – | – | – | – | – | – | – | – | – | – | – | – | – | > 256 µg/mL | 128 µg/mL (≈ 175 µM) | > 256 µg/mL | 4 µg/mL (≈ 5.46 µM) | > 256 µg/mL | > 256 µg/mL | MIC [6, 19]: 32 µg/mL (≈ 43.6 µM); MIC (Escherichia coli CCUG^T; read-out: MIC): 16 µg/mL (≈ 21.8 µM); MIC [7, 20]: 32 µg/mL (≈ 43.6 µM); MIC [8, 21]: 256 µg/mL (≈ 349 µM); MIC [9, 22]: 4 µg/mL (≈ 5.46 µM); MIC ([10]; read-out: MIC): > 256 µg/mL
3 | N=C(N)NCCCCCCN(CCCCCCNC(=N)NCC1CC1)C(=O)NC(=N)NCCCCCCNCCCCCCNC(=N)NCC1CC1 [Compound 33, 1-(6-carbamimidamidohexyl)-1-[6-[[N-(cyclopropylmethyl)carbamimidoyl]amino]hexyl]-3-[N-[6-[6-[[N (cyclopropylmethyl)carbamimidoyl]amino]hexylamino]hexyl]carbamimidoyl]urea] | >256 µg/mL | 256 µg/mL (≈ 349 µM) | >256 µg/mL | 8 µg/mL (≈ 10.9 µM) | >256 µg/mL | >256 µg/mL | 32 µg/mL (≈ 43.6 µM) | 32 µg/mL (≈ 43.6 µM) | 64 µg/mL (≈ 87.3 µM) | >256 µg/mL | 16 µg/mL (≈ 21.8 µM) | >256 µg/mL | 8 µg/mL (≈ 10.9 µM) | 64 µg/mL (≈ 87.3 µM) | – | – | – | – | – | – | –
4 | NC(=O)N1c2ccccc2C=Cc2ccccc21 [CARBAMAZEPINE, Carbamazepine, reference compound] | – | – | – | – | – | – | – | – | – | – | – | – | – | – | – | – | – | – | – | – | intrinsic fluorescence decrease of HSA (Human Serum Albumin): remarkable intrinsic fluorescence decrease
5 | N=C(N)NCCCCCCCCN(CCCCCCCCNC(=N)NCC1CC1)C(=O)NC(=N)NCCCCCCCCNCCCCCCCCNC(=N)NCC1CC1 [Compound 30, 1-(8-carbamimidamidooctyl)-1-[8-[[N-(cyclopropylmethyl)carbamimidoyl]amino]octyl]-3-[N-[8-[8-[[N-(cyclopropylmethyl)carbamimidoyl]amino]octylamino]octyl]carbamimidoyl]urea] | – | – | – | – | – | – | – | – | – | – | – | – | – | – | > 256 µg/mL | > 256 µg/mL | 32 µg/mL (≈ 37.9 µM) | < 0.125 µg/mL | 128 µg/mL (≈ 151 µM) | > 256 µg/mL | MIC [6, 19]: 8 µg/mL (≈ 9.46 µM); MIC (Escherichia coli CCUG^T; read-out: MIC): > 256 µg/mL; MIC [7, 20]: > 256 µg/mL; MIC [8, 21]: > 256 µg/mL; MIC [9, 22]: 4 µg/mL (≈ 4.73 µM); MIC ([10]; read-out: MIC): > 256 µg/mL; MIC ([11]; Acinetobacter baumannii, read-out: MIC): 32 µg/mL (≈ 37.9 µM)
